Read-outs that look alike come from different tables or passages of the source.
Key:
N27 cells = assay: NBT assay of 6-OHDA-mediated ROS generation in N27 dopaminergic cells; type: cell-based, rat; details: 6 h; for 6-OHDA-mediated ROS generation (NBT assay): inhibitor pre-treatment 30 min (DPI 0.1, 0.5, 1.0 μM; apocynin 0.1, 1.0, 10, 100 μM), then 6-OHDA 100 μM
Description: N27 cells were pre-treated with various concentrations of DPI (0.1, 0.5, and 1.0 μM) for 30 min and then 6-OHDA (100 μM) was added. Superoxide was measured using the nitroblue tetrazolium (NBT) assay at 6 h post 6-OHDA.
Cells were grown in RPMI 1640 containing 10% FBS, 100 IU/1 penicillin, and 10 g/ml streptomycin at 37° C. with 5% CO2 supply in humidified atmosphere. For experiments, the cells were plated on polystyrene tissue culture dishes at a density of 2×10^4 cells/well in 96-well culture plates, 1×10^6 cells/well in 24-well culture plates, 1×10^6 cells/well in 6-well culture plates, or 2×10^6 cells/100 mm plate. After 24 h, the cells were fed with fresh medium and treated with 6-OHDA and/or other drugs.
6-OHDA treated cells were incubated for 1 h at 37° C. with a filtered solution of 0.3 mg/ml of NBT in complete medium. The cells were washed once with PBS and fixed with 0.4% paraformaldehyde for light microscopy. To quantify NBT precipitation, cells were washed twice with 70% methanol and fixed for 5 min in 100% methanol. After the wells were allowed to dry in the air, the formazan is solubilized with 120 μl 2M K OH and 140 μl DMSO. The OD was read in an ELISA plate reader at 590 nm.

Nox1 [1] = assay: Nox1 expression (RT-PCR, immunoblot) in N27 cells exposed to toxins; type: cell-based, rat
Description: The NADPH oxidase is a multi-subunit enzyme that consists of the catalytic subunits (Nox isoforms) together with the regulatory subunits including p22phox, p47phox, p40phox, p67phox, Nox organizer 1 (Noxo1), Nox activator 1 (Noxa1), and small GTPase Rac1. In order to test whether dopaminergic (DA) cells are equipped with the NOX components, N27, a well-established rat DA cell line was examined (Prasad et al. 1994). The mRNAs encoding each Nox isoform and regulatory subunits were detected using RT-PCR. Since transcriptional induction of Nox1 and Nox4 has already been reported in several tissues under a variety of stimuli, transcripts were determined in both nontreated and 6-hydroxydopamine (6-OHDA), a DA neurodegenerative compound, treated DA cells. ROS generation as induced by 6-OHDA (100 μM) and subsequent cell death was observed. All Nox isoforms (Nox1, Nox2, Nox4, Duox1 and Duox2) except Nox3 and Nox5 were detected (FIG. 1A). […] Mitochondria, which have long been considered as a major source of ROS, play a key role in Nox1-mediated superoxide generation (Desouki et al. 2005). […] Cytoplasmic regulatory subunits including p47phox, Noxa1, and Noxo1 were constitutively expressed in DA cells as well (FIG. 1A). Noxa1 and Noxo1 are homologues of p67phox and p47phox, respectively. They are involved in Nox1-mediated superoxide generation (Banfi et al. 2003, Geiszt et al. 2003). […] The activation of a small GTPase Rac1 is indispensable for Nox1 and Nox2 activation (Bokoch 2002). GTP-bound active Rac1 was measured in DA cells treated with 6-OHDA for various duration from 1 h to 6 h.
Total RNA was extracted from N27 cells using Trizol reagent (Invitrogen, Carlsbad, Calif.). Reverse transcription was performed for 1 h at 42° C. with 1 μg of total RNA using 20 unit/μl of AMV reverse transcriptase (Roche Applied Science, Indianapolis, Ind.), and oligo-p(dT)15 as a primer. The samples were then heated at 99° C. for 5 min to terminate the reaction. The cDNA obtained from 1 μg total RNA was used as a template for PCR amplification. Oligonucleotide primers were designed based on Genebank entries for rat NOX1 (sense, 5′-[…]-3′ SEQ ID NO. 1; antisense, 5′-[…]-3′ SEQ ID NO. 2), rat NOX2 (sense, 5′-[…]-3′ SEQ ID NO. 3; antisense, 5′-[…]-3′ SEQ ID NO. 4), rat NOX4 (sense, 5′-[…]-3′ SEQ ID NO. 5; antisense, 5′-[…]-3′ SEQ ID NO. 6), rat NOXA1 (sense, 5′-[…]-3′ SEQ ID NO. 7; antisense, 5′-[…]-3′ SEQ ID NO. 8), rat NOXO1 (sense, 5′-[…]-3′ SEQ ID NO. 9; antisense, 5′-[…]-3′ SEQ ID NO. 10), rat p47 (sense, 5′-[…]-3′ SEQ ID NO 11; antisense, 5′-[…]-3′ SEQ ID NO. 12), rat Duox1 (sense, 5′-[…]-3′ SEQ ID NO. 13; antisense, 5′-[…]-3′SEQ ID NO. 14), rat Duox2 (sense, 5′-[…]-3′ SEQ ID NO. 15; antisense, 5′-[…]-3′ SEQ ID NO. 16) and rat GAPDH (sense, 5′-[…]-3′ SEQ ID NO. 17; antisense, 5′-[…]-3′ SEQ ID NO. 18). PCR mixes contained 10 μl of 2×PCR buffer, 1.25 mM of each dNTP, 10 pmol of each forward and reverse primer, and 2.5 units of Taq polymerase in the final volume of 20 μl. Amplification was performed in 35 cycles at 60° C., 30 sec; 72° C., 1 min; 94° C., 30 sec. After the last cycle, all samples were incubated for an additional 10 min at 72° C. for final extension step. PCR fragments were analyzed on 1.2% agarose gel in 0.5×TAE containing ethidium bromide. Amplification of GAPDH, a relatively invariant internal reference RNA, was performed in parallel, and cDNA amounts were normalized against GAPDH mRNA levels. The primer set specifically recognized only the gene of interest as indicated by amplification of a single band of expected size. […]

Nox1 [2] = assay: Nox1 expression in SNDA neurons of MPTP-treated mice; type: in vivo
Nox1 [3] = assay: Nuclear localization of Nox1-EGFP in N27 cells (confocal microscopy); type: cell-based, rat; details: N27 cells expressing Nox1-EGFP; 6-OHDA 50 μM 6 h, rotenone 5 μM 18 h
Description: The observation that Nox1 was induced by a variety of oxidative stimuli in vitro led one to test Nox1 expression in the rat substantia nigra DA (SNDA) neurons administered with 6-OHDA. […] Neither astrocytes nor microglia expressed Nox1, as verified by co-immunostaining of Nox1 with GFAP (astrocytes) or CD11b (microglia) (FIG. 3B). Increased Nox1 transcript was found in the SN as shown by in situ hybridization (FIG. 3C). […] As early as 3 days post 6-OHDA injection, Nox1 expression was increased in the nucleus and in the cytoplasm of DA neurons (FIG. 4A). […] Nuclear expression of the Nox1/Rac1 complex was further analyzed in N27 cells after treatment with 6-OHDA. First, activated Rac1 was detected by immunoprecipitation of nuclear extracts of N27 cells after a 24 h treatment with 6-OHDA. […] Next, it was established that N27 cells stably expressing Nox1 tagged with EGFP at the C-terminus. […] To examine whether nuclear translocation of Nox1 in dopaminergic cells is observed under different conditions that cause dopaminergic neuronal death, mitochondrial respiratory complex inhibitor, rotenone, was tested.

## c1ccc2c(c1)[I+]c1ccccc1-2 [DPI, diphenyleneiodonium]
N27 cells; 30 min pre-treatment, 6-OHDA 100 μM
  lowest concentration significantly reducing 6-OHDA-mediated ROS generation: 0.1 µM
N27 cells
  6-OHDA-mediated ROS generation (NBT assay): significantly reduced

## N#CC(C#N)=NNc1ccc(OC(F)(F)F)cc1 [FCCP]
Nox1 [1]
  mRNA and protein levels of Nox1: elevated

## OO [H2O2]
Nox1 [1]; N27 cells
  mRNA and protein levels of Nox1: increase

## CN1CC=C(c2ccccc2)CC1 [MPTP, 1-methyl-4-phenyl-1,2,3,6-tetrahydropyridine]
Nox1 [2]
  Nox1 expression in the SNDA neurons: Increased Nox1 expression

## COc1cc(C(C)=O)ccc1O [apocynin]
N27 cells
  6-OHDA-mediated ROS generation (NBT assay): significantly diminished

## CC(C)(C)c1ccc(CSc2cnn(C(C)(C)C)c(=O)c2Cl)cc1 [pyridaben]
Nox1 [1]; N27 cells
  mRNA and protein levels of Nox1: elevated

## C=C(C)[C@H]1Cc2c(ccc3c2O[C@@H]2COc4cc(OC)c(OC)cc4[C@@H]2C3=O)O1 [rotenone]
Nox1 [1]; N27 cells
  mRNA and protein levels of Nox1: elevated
Nox1 [3]
  nuclear localization of Nox1: led to nuclear localization of Nox1

## antimycin A
Nox1 [1]; N27 cells
  mRNA and protein levels of Nox1: elevated

— patent publication US9394544B2, “Ameliorating oxidative stress in neurodegenerative disease via Nox1 targeting” (University of Central Florida Research Foundation, Inc., priority 2013, dated 2016)
